Measurements taken from US20210087191A1, “SUBSTITUTED 3-ISOBUTYL-9,10-DIMETHOXY-1,3,4,6,7,11B-HEXAHYDRO-2H-PYRIDO[2,1-a]ISOQUINOLIN-2-OL COMPOUNDS, THEIR [sequence], AND USE THEREOF” (DISPERSOL TECHNOLOGIES, LLC, priority 2020, published 2021).
≈ marks a conversion by molar mass, not a printed value. Like-named read-outs stand apart in the source and are kept apart here. Each block holds one molecule with its values, some of them ahead of it.

Columns and labels:
[1] = cited from earlier work
[2] = human, oral 25 mg IR formulation; cited from earlier work
[3] = in vivo; cited from earlier work
[4] = target: vesicular monoamine transporter-2 (VMAT2) (Homo sapiens, UniProt Q05940); details: read-out: IC50, inhibition of catecholamine uptake by VMAT2; cited from earlier work
Sequence of vesicular monoamine transporter-2 (VMAT2) (Q05940 whole entry, species assumed): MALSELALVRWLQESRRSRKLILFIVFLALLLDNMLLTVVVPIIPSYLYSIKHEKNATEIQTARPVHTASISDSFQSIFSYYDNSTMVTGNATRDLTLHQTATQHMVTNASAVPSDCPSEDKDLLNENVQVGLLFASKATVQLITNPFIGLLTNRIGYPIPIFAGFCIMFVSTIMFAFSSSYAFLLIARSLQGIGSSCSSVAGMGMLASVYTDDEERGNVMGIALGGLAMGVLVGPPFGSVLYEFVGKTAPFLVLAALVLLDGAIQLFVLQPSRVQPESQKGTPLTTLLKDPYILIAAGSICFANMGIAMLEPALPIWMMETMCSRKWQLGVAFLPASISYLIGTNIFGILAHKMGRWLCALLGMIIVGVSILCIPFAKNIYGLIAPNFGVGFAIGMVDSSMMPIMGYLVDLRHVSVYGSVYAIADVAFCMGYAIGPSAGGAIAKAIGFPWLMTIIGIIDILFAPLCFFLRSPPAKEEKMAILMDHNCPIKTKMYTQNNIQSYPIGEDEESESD

[5] = Metabolic stability in human liver microsomes (LM), LC-MS/MS (first table); format: in vitro ADME; details: for microsomal CLint: Table 1, read-out: Human LM CLint (μL/min/mg protein); for half-life: Table 1, read-out: Human LM t1/2
Method: (§1) Metabolism of compound(s) to release (+)-α-DTHBZ was determined by the half-life (t1/2) and intrinsic clearance (CIint) in human plasma (PS) and liver microsomes (LM) using tandem mass spectrometry (LC-MS/MS).

[6] = Stability in human plasma (PS), LC-MS/MS; format: in vitro ADME; details: for half-life: read-out: Human PS t1/2
Method: as §1

[7] = LM stability assay, human (second table); format: in vitro ADME; details: human liver microsomes, Table 2; for microsomal CLint: read-out: LM stability assay Human Clint (μL/min/mg protein); for half-life: read-out: LM stability assay Human t1/2
Method: Metabolism of compound(s) to release (+)-α-DTHBZ was determined by the half-life (t1/2) and intrinsic clearance (CIint) in human liver microsomes (LM) using tandem mass spectrometry (LC-MS/MS).

[8] = test system: human cryopreserved hepatocytes; test: Heps. stability assay, human cryopreserved hepatocytes; format: in vitro ADME
Method: (§2) Metabolism of compound(s) to release (+)-α-DTHBZ was determined by the half-life (t1/2) and intrinsic clearance (CIint) in human cryopreserved hepatocytes using tandem mass spectrometry (LC-MS/MS).

[9] = Kinetic solubility in PBS buffer; format: physicochemical; details: aqueous buffer, kinetic from dmso stock, compound suspended at 300 μM, 25° C.
Method: Kinetic solubility was determined by suspending compound at 300 μM at pH 1.2 and 7.4 in PBS buffer. The suspension was equilibrated by shaking at 25° C. at 1100 RPM for 2 hours and then pH was measured following filtration. The filtrate was then diluted by an appropriate factor (e.g. 100-fold). Quantitation was done by LC-MS/MS with reference to a standard solution.

[10] = Permeability in Caco-2 cell monolayer; format: in vitro ADME; details: human; for efflux ratio: Caco-2; for Papp A→B: Caco-2, apical to basolateral; for Papp B→A: Caco-2, basolateral to apical
Method: The intestinal permeability of compound(s) was evaluated in Caco-2 cells by assessing transport across the cell monolayer in the apical to basolateral (A-B) direction. Active efflux was also assessed by measuring transport in the basolateral to apical (BA) direction which enables evaluation of the efflux ratio. Analysis of transport is quantified by tandem mass spectrometry (LC-MS/MS).

[11] = cited from earlier work; remark: listed apart in the source
[12] = compared to the other three isomers; cited from earlier work
[13] = test system: VMAT1, other receptors (e.g., dopamine D2 receptors), transporters, and ion channels; details: in vitro; cited from earlier work
[14] = Heps. stability assay, human cryopreserved hepatocytes; format: in vitro ADME
Method: as §2

[15] = pH 1.2, PBS buffer, read-out: Kinetic Solubility pH = 1.2 (300 μM)
[16] = pH 7.4, PBS buffer, read-out: Kinetic Solubility pH = 7.4 (300 μM)

Structure (SMILES): COc1cc2c(cc1OC)C1CC(=O)C(CC(C)C)CN1CC2 (centres unmarked) [TBZ, 3-isobutyl-9,10-dimethoxy-1,3,4,6,7,11b-hexahydro-2H-pyrido[2,1-a]isoquinolin-2-one]
solubility in acidic environments ([1]; pH<2): 8500 µg/mL (≈ 26.8 mM) | solubility in neutral environments ([1]; pH>4): 30 µg/mL (≈ 0.0945 mM) | Mean Tmax [2]: approximately 1 hour | mean t1/2 [2]: approximately 2 hours | Tmax [3]: 1 h | IC50 [4]: 3.2 nM

Structure (SMILES): [2H]C([2H])([2H])Oc1cc2c(cc1OC([2H])([2H])[2H])C1CC(=O)C(CC(C)C)CN1CC2 (centres unmarked) [Austedo®]
median Tmax [3]: 3 to 4 h

microsomal CLint [5]: < 0.79 µL/min/mg | half-life [5]: > 14.7 h | Human PS t1/2 (min) [6]: ∞ | LM stability assay Human t1/2 (min) [7]: ∞ | Heps. stability assay Human t1/2 (min) [8]: ∞ | solubility kinetic at 2 h [9, 15]: 281 µM (≈ 118 µg/mL) | solubility kinetic at 2 h [9, 16]: 295 µM (≈ 124 µg/mL) | efflux ratio [10]: 2.54 | Papp A→B [10]: 8.67 ×10⁻⁶ cm/s | Papp B→A [10]: 22 ×10⁻⁶ cm/s
Structure (SMILES): COc1cc2c(cc1OC)[C@H]1C[C@@H](OC(=O)CCC(=O)O)[C@H](CC(C)C)CN1CC2 [Example 2, 4-[[(2R,3R,11bR)-9,10-dimethoxy-3-(2-methylpropyl)-1H,2H,3H,4H,6H,7H,11bH-pyrido[2,1-a]isoquinolin-2-yl]oxy]-4-oxobutanoic acid]

Structure (SMILES): COc1cc2c(cc1OC)[C@H]1C[C@@H](O)[C@H](CC(C)C)CN1CC2 [(+)-α-DHTBZ, 2R,3R,11bR-dihydrotetrabenazine]
Cmax (time) of (+)-α-DHTBZ formed from Valbenazine ([11]; after Valbenazine, hydrolysis of the valine ester): 4 to 8 h | Tmax of (+)-α-DHTBZ after the administration of Valbenazine ([11]; after administration of Valbenazine): 4 to 8 h | off-target affinity [12]: no off-target affinity

Structure (SMILES): COc1cc2c(cc1OC)[C@H]1C[C@@H](OC(=O)[C@@H](N)C(C)C)[C@H](CC(C)C)CN1CC2 [Valbenazine, (2R,3R,11bR)-9,10-dimethoxy-3-(2-methylpropyl)-1,3,4,6,7,11b-hexahydro-2H-benzo[a]quinolizin-2-yl L-valinate]
oral bioavailability ([11]; in vivo, po): 49% | Tmax ([11]; in vivo): 0.5 to 1 h | excreted in feces ([11]; in vivo): 30% | excreted in urine ([11]; in vivo): Approximately 60% | parent compound or active metabolite excreted unchanged ([11]; in vivo): Less than 2% | t1/2 ([11]; in vivo): 15 to 22 h | affinity for VMAT1, other receptors, transporters, and ion channels [13]: little or no affinity

microsomal CLint [5]: < 0.35 µL/min/mg | half-life [5]: > 32.9 h | half-life [6]: > 44.7 h | microsomal CLint [7]: 1.67 µL/min/mg | half-life [7]: 13.4 h | Heps. stability assay Human t1/2 (min) [8]: ∞ | solubility kinetic at 2 h [9, 15]: 276 µM (≈ 130 µg/mL) | solubility kinetic at 2 h [9, 16]: 294 µM (≈ 138 µg/mL) | efflux ratio [10]: 25.1 | Papp A→B [10]: 0.68 ×10⁻⁶ cm/s | Papp B→A [10]: 17.1 ×10⁻⁶ cm/s
Structure (SMILES): COc1cc2c(cc1OC)[C@H]1C[C@@H](OC(=O)c3cncc(C(=O)O)c3)[C@H](CC(C)C)CN1CC2 [Example 6, 5-([[(2R,3R,11bR)-9,10-dimethoxy-3-(2-methylpropyl)-1H,2H,3H,4H,6H,7H,11bH-pyrido[2,1-a]isoquinolin-2-yl]oxy]carbonyl)pyridine-3-carboxylic acid]

microsomal CLint [5]: 2.17 µL/min/mg | half-life [5]: 5.76 h | half-life [6]: 2.38 h | microsomal CLint [7]: 0.35 µL/min/mg | half-life [7]: 51.1 h | microsomal CLint ([14]; read-out: Heps. stability assay Human Clint (μL/min/mg protein)): 4.75 µL/min/mg | half-life ([14]; read-out: Heps. stability assay Human t1/2): 4.89 h | solubility kinetic at 2 h [9, 15]: 303 µM (≈ 156 µg/mL) | solubility kinetic at 2 h [9, 16]: 300 µM (≈ 155 µg/mL) | efflux ratio [10]: > 402 | Papp A→B [10]: < 0.01 ×10⁻⁶ cm/s | Papp B→A [10]: 4.02 ×10⁻⁶ cm/s
Structure (SMILES): COc1cc2c(cc1OC)[C@H]1C[C@@H](OC(=O)/C=C\C(=O)N[C@H](C(=O)O)C(C)C)[C@H](CC(C)C)CN1CC2 [Example 13, (2S)-2-[(2Z)-4-[[(2R,3R,11bR)-9,10-dimethoxy-3-(2-methylpropyl)-1H,2H,3H,4H,6H,7H,11bH-pyrido[2,1-a]isoquinolin-2-yl]oxy]-4-oxobut-2-enamido]-3-methylbutanoic acid]
